Common to all, as to assay type: cell-based
Experiment [1] has as its target T1, P2RX7 receptor (Homo sapiens, UniProt Q99572).
T1 construct: host or cells: HEK-293
T1 sequence (Q99572 1-595): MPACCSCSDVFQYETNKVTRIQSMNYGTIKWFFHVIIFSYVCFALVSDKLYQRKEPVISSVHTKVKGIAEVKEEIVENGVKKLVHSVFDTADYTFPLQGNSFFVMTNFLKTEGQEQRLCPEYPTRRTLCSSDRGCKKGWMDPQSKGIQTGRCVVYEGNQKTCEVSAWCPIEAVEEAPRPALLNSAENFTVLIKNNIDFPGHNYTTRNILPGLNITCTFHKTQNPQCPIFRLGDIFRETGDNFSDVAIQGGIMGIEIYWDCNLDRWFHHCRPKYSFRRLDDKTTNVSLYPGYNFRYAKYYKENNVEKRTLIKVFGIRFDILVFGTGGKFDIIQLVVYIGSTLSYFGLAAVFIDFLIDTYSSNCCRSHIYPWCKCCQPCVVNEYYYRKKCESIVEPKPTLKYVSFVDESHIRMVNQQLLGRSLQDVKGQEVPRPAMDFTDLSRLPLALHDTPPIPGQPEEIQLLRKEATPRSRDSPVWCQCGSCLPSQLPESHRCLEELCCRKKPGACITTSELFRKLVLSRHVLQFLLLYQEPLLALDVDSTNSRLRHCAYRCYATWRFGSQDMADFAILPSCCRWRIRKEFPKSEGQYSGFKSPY
Briefly: ionChannelΩ conductance assay, HEK-293 expressing P2RX7. The conditions noted are these: HEK-293_P2RX7, agonist.

Experiment [2] addresses T1, P2RX7 receptor. Briefly: FLIPR (GCaMP2.1 calcium biosensor), HEK-293 expressing P2RX7. The following applies: HEK-293_P2RX7, agonist. Here is the method:
(§1) Intracellular calcium concentration was measured by: GCaMP2.1 calcium biosensor for P2RX7; Screen Quest™ Fluo-8 No. Wash Calcium Assay Kit (AAT Bioquest) for TRPV1; and Calcium Assay Kit (Molecular Devices) for TRPM2.
For the P2RX7 assay, cells were preincubated in Low Calcium, Magnesium free Tyrode’s Buffer.
Reference blockers were injected at FLIPRTetra instrument and fluorescence signal was recorded. After 10 minutes a second injection of reference activators was performed and fluorescence was measured.

For experiment [3], the target named is T2, hTRPV1 (Homo sapiens, UniProt Q8NER1).
T2 construct: host or cells: CHO-K1
T2 sequence (Q8NER1 whole entry): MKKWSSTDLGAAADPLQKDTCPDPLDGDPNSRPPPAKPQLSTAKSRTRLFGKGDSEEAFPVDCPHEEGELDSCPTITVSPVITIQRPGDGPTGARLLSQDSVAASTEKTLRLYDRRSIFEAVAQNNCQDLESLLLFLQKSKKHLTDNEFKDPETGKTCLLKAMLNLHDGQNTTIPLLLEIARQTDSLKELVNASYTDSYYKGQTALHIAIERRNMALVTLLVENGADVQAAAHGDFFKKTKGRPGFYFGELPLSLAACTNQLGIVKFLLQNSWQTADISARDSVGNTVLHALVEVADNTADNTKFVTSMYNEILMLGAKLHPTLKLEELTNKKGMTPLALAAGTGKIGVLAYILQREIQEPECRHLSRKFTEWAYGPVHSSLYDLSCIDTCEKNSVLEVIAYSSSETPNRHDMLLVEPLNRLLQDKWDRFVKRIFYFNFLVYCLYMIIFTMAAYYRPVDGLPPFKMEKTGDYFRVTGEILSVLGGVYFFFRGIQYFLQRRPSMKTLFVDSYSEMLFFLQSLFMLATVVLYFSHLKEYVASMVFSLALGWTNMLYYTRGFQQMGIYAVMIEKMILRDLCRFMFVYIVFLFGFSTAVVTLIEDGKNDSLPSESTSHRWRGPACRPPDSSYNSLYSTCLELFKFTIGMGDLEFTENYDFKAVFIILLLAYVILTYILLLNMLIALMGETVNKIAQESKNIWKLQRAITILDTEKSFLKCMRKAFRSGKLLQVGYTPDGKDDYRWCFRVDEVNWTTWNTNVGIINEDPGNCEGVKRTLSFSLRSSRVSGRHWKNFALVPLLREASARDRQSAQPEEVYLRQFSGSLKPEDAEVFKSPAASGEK
Briefly: ionChannelΩ electro-optical conductance assay, CHO-K1 expressing hTRPV1. The following applies: scatter plot linear regression, highest capsaicin concentrations.
Protocol: (§2) Test current pulses (mono or biphasic) were administered to cells by parallel electrodes placed on the plane of the cells. Pulse length was several times the membrane time constant of the investigated cells in order to acquire images at a time of the pulse when plateau was fully established. Current intensity was set high enough to generate significant variations in the fluorescence signal, still avoiding membrane electroporation[35]. More specifically, a plot of the ΔFc/FRc values obtained at increasing current values was obtained: only current intensities giving correlative values lying on the linear part of the plot were used. […]
(§3) Images are processed off-line by a MATLAB-based Image Analysis program, developed in the laboratory, which offers the possibility to employ different filters, parameters and types of analysis in order to extract the data necessary to draw CRCs. […] More specifically, pixels were selected as part of the shape mask when the following requirements were met: to be part of the cell (recognition of object boundary from fluorescence signals); to be confined to the plasma membrane region (calculation of a ring of depth boundaries). […] In either case, mean values ± standard error (calculated from values obtained in the different sampling areas of the same well) were obtained at the various concentration of the drug and fitted by a nonlinear regression curve. […]

Experiment [4] has as its target T3, TRPM2 (Homo sapiens, UniProt O94759).
T3 construct: host or cells: HEK-293
The experiment is described as follows: ionChannelΩ conductance assay, HEK-293 expressing TRPM2. The following applies: HEK-293_TRPM2.
Protocol: as §2, §3

Experiment [5] has as its target T3, TRPM2. Briefly: FLIPR (Calcium Assay Kit), HEK-293 expressing TRPM2. The conditions noted are these: HEK-293_TRPM2. Here is the method: as §1
The test system of experiment [6] is HeLa cells. The experiment is described as follows: Optical detection of plasma membrane resistance changes in HeLa cells (conventional microscope). The conditions noted are these: increasing concentrations. From the text:
Resistance (R) determines the magnitude of the passive changes observed in membrane potential in response to a constant current: the lower the resistance, the lower the membrane potential variation (Supplementary Figure 1). Accordingly, we investigated the possibility of using local membrane potential variations imposed by a test square current pulse to measure changes in membrane resistance. The variation of VSD fluorescence values during the current pulse, were quantified as ΔF, i.e. the difference between the plateau value reached during the electric stimulus (FS) and the pre-stimulus, resting, value (FR) (Supplementary Figure 1). ΔF values were further normalized to their respective resting values (ΔF/FR) to take into account even minimal variations of VSD fluorescence due to dye bleaching. […]
Images were processed off-line by an image analysis program developed in MATLAB (The MathWorks). […] Fluorescence intensity values were calculated as the mean of the values obtained in the selected ROIs within the 3 stimuli series administered in the different conditions (before and during the plateau phase of the pulse, in the absence and in the presence of a test compound). […]

T3 sequence (O94759 whole entry): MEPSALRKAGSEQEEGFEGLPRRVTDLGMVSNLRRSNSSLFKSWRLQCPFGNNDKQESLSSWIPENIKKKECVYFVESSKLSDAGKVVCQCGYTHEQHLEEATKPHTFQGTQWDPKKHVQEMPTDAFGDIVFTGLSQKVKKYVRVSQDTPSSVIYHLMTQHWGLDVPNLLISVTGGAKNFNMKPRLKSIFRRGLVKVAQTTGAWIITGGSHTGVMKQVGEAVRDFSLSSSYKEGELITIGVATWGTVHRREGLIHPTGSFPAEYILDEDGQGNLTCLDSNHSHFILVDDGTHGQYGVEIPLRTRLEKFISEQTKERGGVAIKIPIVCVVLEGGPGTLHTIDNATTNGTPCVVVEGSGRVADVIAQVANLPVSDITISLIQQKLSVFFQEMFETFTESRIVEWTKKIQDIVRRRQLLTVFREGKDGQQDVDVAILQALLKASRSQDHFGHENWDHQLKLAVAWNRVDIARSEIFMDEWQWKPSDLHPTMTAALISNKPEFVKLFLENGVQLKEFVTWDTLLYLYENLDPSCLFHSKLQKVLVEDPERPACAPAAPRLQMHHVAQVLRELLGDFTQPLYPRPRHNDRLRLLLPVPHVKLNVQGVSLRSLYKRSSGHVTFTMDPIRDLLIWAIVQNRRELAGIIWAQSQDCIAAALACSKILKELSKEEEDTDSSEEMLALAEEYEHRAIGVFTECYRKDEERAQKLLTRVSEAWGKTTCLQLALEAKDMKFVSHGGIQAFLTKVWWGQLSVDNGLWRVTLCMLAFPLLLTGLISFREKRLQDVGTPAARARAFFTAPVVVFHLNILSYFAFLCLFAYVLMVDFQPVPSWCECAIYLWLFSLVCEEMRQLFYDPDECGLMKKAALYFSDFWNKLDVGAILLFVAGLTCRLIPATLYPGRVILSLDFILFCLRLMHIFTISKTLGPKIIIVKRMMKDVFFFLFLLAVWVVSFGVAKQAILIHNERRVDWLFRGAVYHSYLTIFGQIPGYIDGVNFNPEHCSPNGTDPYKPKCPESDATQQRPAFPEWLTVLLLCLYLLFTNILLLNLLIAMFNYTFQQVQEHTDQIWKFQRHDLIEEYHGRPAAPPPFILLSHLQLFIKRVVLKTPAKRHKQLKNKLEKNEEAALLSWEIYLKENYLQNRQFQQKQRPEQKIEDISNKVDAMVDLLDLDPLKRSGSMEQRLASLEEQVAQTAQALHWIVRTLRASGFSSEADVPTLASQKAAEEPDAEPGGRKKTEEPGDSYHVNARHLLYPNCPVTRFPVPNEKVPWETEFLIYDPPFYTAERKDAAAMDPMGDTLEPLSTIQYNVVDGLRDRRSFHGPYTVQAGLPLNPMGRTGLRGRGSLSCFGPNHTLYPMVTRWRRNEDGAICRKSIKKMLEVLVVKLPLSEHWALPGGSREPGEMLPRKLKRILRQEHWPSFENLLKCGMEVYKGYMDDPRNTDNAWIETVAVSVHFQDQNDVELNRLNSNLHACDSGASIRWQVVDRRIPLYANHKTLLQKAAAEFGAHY

As a reminder, the EC50 is the concentration needed to bring the measured effect to its halfway point. For the compound “2′(3′)-O-(4-Benzoylbenzoyl)adenosine 5′-triphosphate triethylammonium salt [BzATP]”, the EC50 in experiment [1] worked out at 3.4 µM; in experiment [2] it was 6.35 µM. Take `COc1cc(CNC(=O)CCCC/C=C/C(C)C)ccc1O` [capsaicin]: in experiment [3], the “unitary slope resistance, final value at increasing concentrations” value is ~20 % of control.

Take `COC1=C(N)C(=O)c2nc(-c3nc(C(=O)O)c(C)c(-c4ccc(OC)c(OC)c4O)c3N)ccc2C1=O` [streptonigrin]: the EC50 in experiment [4] turned out to be 14.1 µM; in experiment [5] it was 4.3 µM. Regarding “Streptolysin-O: bacterial protein able to insert into the eukaryotic plasma membrane and form non-selective ion pores”, in experiment [6], the “VSD responses to electric square pulses (membrane resistance)” value is reported as “progressively reduced in amplitude”.

For the origin of these results see PMC5359596, “A new electro-optical approach for conductance measurement: an assay for the study of drugs acting on ligand-gated ion channels” (Scientific Reports, 2017).
